{"source": "patent US7501281B2", "about": "“Compositions, methods and kits related to thrombin, Notch signaling and stamatogenesis and growth of stem cells” (Maine Medical Center Research Institute, priority 2003, dated 2009)", "format_in_all_cases": "cell-based, murine", "key": {"[1]": {"system": "NIH 3T3 stable transfectants", "assay": "Analysis of FGF1-induced spheroid formation", "conditions": "for spheroid formation: 10 ng/ml FGF1, 10 U/ml heparin", "method": "Clonal populations of NIH 3T3 stable transfectants were resuspended and grown in media containing 10% BCS, 10% BCS containing 1 μM PD166866, 10% BCS containing 10 ng/ml recombinant human FGF1 and 10 U/ml heparin or 10% BCS containing 10 ng/ml recombinant human FGF1, 10 U/ml heparin and 1 μM PD166866 as indicated in the figure legend. Approximately 2×10^5 cells were plated per well (6-well dish) and three days after plating, phase-contrast micrographs of the cells were taken."}, "[2]": {"system": "NIH 3T3 stable transfectants", "assay": "Colony formation in soft agar", "conditions": "for effect on colonies in soft agar: 10 ng/ml FGF1", "method": "Clonal populations of NIH 3T3 cells stably transfected with vector control, soluble Jagged1 (sJ1), constitutively active Notch1 (caN1), constitutively active Notch2 (caN2), dominant negative Notch 1 (dnN1), dominant negative Notch 2 (dnN2), an oncogenic mutant of FGF1 engineered with the FGF4 signal peptide sequence (hst-β (FGF4):FGF1), or constitutively active oncogenic Ras construct (caRas), were plated on 6 cm tissue culture dishes with 0.5% agar in an overlay containing DMEM (Gibco BRL) media, 10% bovine calf serum (BCS; Hyclone), and 0.33% agar at 1.5×10^3 cells/dish. As indicated, some dishes were also treated with 1 μM of the FGFR1-specific inhibitor, PD166866 (Panek et al., 1998, J. Pharmacol. Exp. Ther. 286: 569-577) and/or 10 ng/ml recombinant human FGF1 and 10 U/ml heparin (Sigma). Cells were fed with 0.5 ml of media with or without FGF1 and/or the FGFR1-specific inhibitor every 3 days as indicated. Twenty days after plating, colonies were stained with p-iodonitrotetrazolium violet (Sigma) for visualization. Quantitation of colony formation was achieved by counting all p-iodonitrotetrazolium violet-stained colonies consisting of more than 4 cells under a Zeiss Stemi SVII Apo dissecting microscope."}, "[3]": {"system": "Jagged1 in NIH 3T3 stable transfectants", "assay": "Immunoblot analysis of Jagged1 expression", "conditions": "10 ng/ml FGF1 and 10 U/ml heparin; all stable lines examined", "method": "Vector control, SJ1, CaN1, J1, Hstβ(FGF4):FGF1 and sJ1:caN1 stable NIH 3T3 cell transfectants were plated on tissue culture dishes in either normal growth media (DMEM (Gibco BRL) media, 10% bovine calf serum (BCS; Hyclone)) or normal growth media containing 10 ng/ml recombinant FGF1 and 10 U/ml heparin. Cells were harvested at confluency (based on status of vector control cells grown in normal growth media).\nBecause hst-β(FGF4):FGF1 stable transfectants and the sJ1 transfectants grown in FGF1-containing media form spheroids, all cells were harvested by scraping in the presence of the growth media dn then the cells/growth media was collected into sterile 15 ml conical tubes. Cells were pelleted by centrifugation at 800×g for 5′ at 4° C. After centrifugation, the supernatant was removed and the cell pellets were washed 3× with 1×PBS. Cells were lysed in 500 μl in 20 mM tris, pH 7.5 containing 300 mM sucrose, 60 mM KCl, 15 mM NaCl, 0.5 mM EDTA, 0.5% (v/v) Triton X-100 1 mM Phenymethyl sulfonyl flouride, 0.1% SDS, 2 μg/ml aprotinin, 10 μg/ml aprotinin, 10 μg/ml leupeptin, and 1 mM sodium orthovanadate for 15 minutes on ice. Cell lysates were pelleted and the supernatant containing soluble proteins removed.\nSamples were normalized to protein concentration using the BCA Protein Assay Kit (Pierce). […]"}, "[4]": {"system": "caN1/CSL transcription in NIH 3T3 transfectants", "assay": "Transient transfection assay of CSL-regulated transcription", "conditions": "1, 2.5, 5 or 10 ng/ml FGF1", "method": "NIH 3T3 cells were plated onto fibronectin-coated (10 μg/cm2) 12-well tissue culture dishes and transiently transfected at approximately 80% confluency with 500 ng of a Luciferase construct activated by 4 tandem copies of the CSL (CBF1) response element (Hsieh et al. 1996, Mol. Cell. Biol. 16: 952-959), 100 ng of the TK Renilla (Promega) construct as an internal control for transfection efficiency, and 500 ng of either vector control, sJ1 or caN1 constructs using Fugene 6 (Roche) per manufacturer's instructions. For analysis of caN1 activity in the background of NIH 3T3 stable lines, vector control, caN1, sJ1 and hst-β(FGF4):FGF1 stable transfectants were plated onto fibronectin-coated (10 μg/cm2) 12-well tissue culture dishes and transiently transfected with 500 ng of the CSL-Luciferase construct, 100 ng of the TK Renilla (Promega) construct as an internal control for transfection efficiency, and 200 ng of caN1. […] The cells were harvested 48 hours after the media change and Luciferase/Renilla activity was measured using Promega's Dual-Luciferase Reporter Assay System. The efficiency of transcription was measured and normalized in relationship to the activity of pRL-TK Renilla and the activity is reported as the ratio of Luciferase/Renilla activity. […]"}, "[5]": {"system": "Swiss 3T3 cells expressing a dominant-negative FGFR1 mutant", "assay": "DNA synthesis assay, (3H)-thymidine autoradiography", "conditions": "10 ng/ml FGF1 plus 10 units/ml heparin", "method": "A combination of (^3H)-thymidine autoradiography and immunohistochemistry was used to evaluate the levels of DNA synthesis in Swiss 3T3 cells expressing a dominant-negative FGFR1 mutant. Swiss 3T3 cells were plated at 50% confluency on glass coverslips precoated with fibronectin (10 μg/cm^2) for 24 hours. The cells were transfected with the pCS2 vector expressing a dominant-negative X. laevis FGFR1 deletion mutant lacking the FGFR1 intracellular domain (a gift from Dr. R. Friesel) using the Fugene 6 reagent (Roche). After 24 hours, the medium was changed to DMEM containing 0.25% BCS and following a 48 hour incubation in low BCS, the cells were stimulated with either 10 μg/ml of α-thrombin, 10% BCS or 10 ng/ml of recombinant FGF1 plus 10 units/ml of heparin. After stimulation for 24 hours, (^3H)-thymidine (NEN; 1 μCi/ml) was added to the medium and cells were incubated for 12 hours and fixed with 4% neutral formaldehyde. […] The percentage of (^3H)-labeled nuclei among the dnFGFR1-positive and dnFGFR1-negative cells was quantitated using an inverted Olympus microscope.\nThus, a dominant-negative (dn) FGFR1 construct was expressed in Swiss 3T3 cells and their proliferative index measured in the presence and absence of exogenous thrombin."}, "[6]": {"system": "Notch-dependent CSL1 activity in full-length Jagged1 NIH 3T3 cell transfectants", "assay": "Dual Luciferase Reporter Assay of CSL1-dependent transcription"}}, "data": [{"compound": "COc1cc(OC)cc(-c2cc3cnc(N)nc3nc2NC(=O)NC(C)(C)C)c1", "note": "[PD166866]", "values": [{"measurement": "effect on FGF1-induced spheroid formation", "setting": "[1]; 1 μM PD166866, sJ1, dnN1 and hst-β (FGF4):FGF1 stable transfectants", "result": "completely abolished"}, {"measurement": "effect on colony formation", "setting": "[2]; 1 μM PD166866, caRas cells", "result": "no effect"}, {"measurement": "effect on FGF1-mediated colony formation", "setting": "[2]; 1 μM PD166866, sJ1, dnN1 and hst-β (FGF4):FGF1 transfectants", "result": "substantially reduced"}, {"measurement": "effect on small colony growth", "setting": "[2]; 1 μM PD166866, sJ1 and dnN1 in the absence of FGF1", "result": "inhibited"}]}, {"compound": "FGF1: recombinant human fibroblast growth factor 1, added with heparin", "values": [{"measurement": "effect on Jagged1 expression", "setting": "[3]", "result": "increased Jagged1 expression"}, {"measurement": "effect on caN1/CSL transcription", "setting": "[4]", "result": "repressed caN1/CSL transcription in a dose-dependent fashion"}, {"measurement": "spheroid formation", "setting": "[1]; Notch-repressed cells (sJ1, dnN1)", "result": "formed multicellular, spheroid-like structures"}, {"measurement": "spheroid formation", "setting": "[1]; vector control and caN1 transfectants", "result": "did not form spheroids"}, {"measurement": "effect on colonies in soft agar", "setting": "[2]; caN1 and vector control transfectants", "result": "either no effect or only resulted in the formation of sparse and very small colonies"}, {"measurement": "effect on colonies in soft agar", "setting": "[2]; sJ1 and dnN1 transfectants", "result": "greatly exaggerated the size of the colonies"}, {"measurement": "reduction by dnFGFR1 expression of the ability to induce replicating nuclei", "setting": "[5]", "result": "approximately 70%"}, {"measurement": "CSL1-dependent transcription, of the control level", "setting": "[6]; 10 ng/ml exogenous FGF1", "result": "approximately 25%"}]}, {"compound": "heparin [reference compound]", "values": [{"measurement": "effect of heparin on thrombin-dependent repression of CSL1-dependent transcription", "setting": "[6]; heparin 5 units/ml with thrombin 10 μg/ml", "result": "able to potentiate"}, {"measurement": "effect on CSL1-dependent transcription", "setting": "[6]; heparin by itself", "result": "ineffective"}, {"measurement": "effect on CSL1-dependent transcription", "setting": "[6]; heparin in the presence of 10 μM TRAP", "result": "ineffective"}]}]}
